Results published in patent US20110028554A1, “PHARMACEUTICAL COMPOSITIONS COMPRISING DIIODOTHYRONINE AND THEIR THERAPEUTIC USE” (UNIVERSITE JOSEPH FOURIER, priority 2007, published 2011).

How the values were obtained:
[1] = Body composition of genetically obese Zucker rats; assay type: in vivo, Zucker (Fa/Fa) rats; settings: FIG. 9, high dosage 25 μg/100 g BW
Text: At the end of the experimental period, animals were sacrificed by decapitation, in order to avoid the well-known effects of general anesthetics on mitochondrial metabolism. Blood, samples were immediately collected and plasma was frozen for subsequent determination of serum metabolites and hormones. Liver, muscles and fat depots were quickly excised and weighed. Liver median lobe was rapidly freeze-clamped. Muscles (plantaris, soleus and gastrocnemius) were frozen in isopentane precooled in liquid nitrogen. Mesenteric fat consisted, of adipose tissue surrounding the gastro-intestinal tract from the gastro-oesophageal sphincter to the end of the rectum with special care taken in distinguishing and removing the pancreas. Retroperitoneal fat pad was taken as the distinct depot behind each kidney along the lumbar muscles. Epididymal fat consisted, of adipose tissue on top of the epididymis. For subcutaneous depot measurement, a rectangular piece of skin was taken on the right side of each animal from the median line of the abdomen between the spine and the right hip to the first rib. Interscapular brown adipose tissue was removed and dissected free from adjacent muscles and white adipose tissue. The heart ventricles, the right kidney and the spleen were also excised, weighed and frozen.

[2] = Body weight, adipose and lean tissue weight and core temperature in ZDF rats; assay type: in vivo, Zucker Diabetic fatty (ZDF) rats; settings: high dose 25 μg/100 g BW
Protocol: Adult male rat bred in the animal room facilities of Laboratory of Fundamental and Applied. Bioenergetics (Wistar strain) or purchased from Charles-River Laboratories, Domaine des oncins, L'ARBRESLE France [(genetically obese normoglycemic (Zucker or Fa/Fa) or diabetic (ZDF)] were caged individually in stainless steel hanging cages and maintained in a 22° C., 50±10% relative humidity and 12 h:12 h light:dark environment. All animals were fed ad libitum with a standard rat chow (Safe A04, Villemoisson, France) and tap water. Body mass and food intake were recorded twice/thrice a week and fresh food was provided, at the same time to ensure minimal disturbance to the animals' food, behavior.
Eight-week old rats (300 g±10 g) were anesthetized by simultaneous intraperitoneal injection of diazepam 4 mg/kg and ketamine 100 mg/kg. In order to maintain body temperature during the surgery (10 min), animals were placed on a warm blanket. After interscapular shaving, a small incision of 0.5 cm of the skin allows the subcutaneous implantation of a small pellet (containing rT3 or 3′,3-T2) with a 10-gauge precision trochar. The pellets, manufactured by Innovative Research of America (Sarasota, Fla., USA) are constituted of a biodegradable matrix that effectively and continuously release the active product in the animal.
3-5 diiodothyronine (3-5 T2) or 3-3′diiodothyronine (3-3′ T2) were used at different doses (5, 0.5, or 0.1 mg/pellet) were implanted in order to provide a continuous and constant drug delivery over 60 days (which represents 25 μg, 2.5 μg or 0.5 μg/day/100 g BW).

[3] = system: liver mitochondria; assay: Liver mitochondrial oxygen consumption (JO2) of treated Wistar rats; assay type: in vivo; settings: for Liver mitochondrial respiratory rate, phosphorylating condition (state 3), vs placebo: all substrates
Protocol: (§1) All measurements were performed using mitochondria (1.0 mg mitochondrial protein/ml) incubated with various substrates: • GM: glutamate/malate (5 mM/2.5 mM) • SR: succinate/rotenone (5 mM/5 μM), • GMS: glutamate/malate/succinate (5 mM/2.5 mM/5 mM), • Palm: palmitoyl carnitine (55 μM), • Octa: octanoyl carnitine (100 μM), • TMPD/AsC: TMPD/ascorbate (0.5 mM/0.5 mM), and • TMPD/AsC/DNP: TMPD/ascorbate/DNP (0.5 mM/0.5 mM/75 μM).
JO2 was recorded in the presence of the substrate and following the addition of 1 mM ADP (adenosine diphosphate) (state 3).
The oligomycin was added to the mitochondrial suspension to determine the non-phosphorylating respiratory-rate (state 4).
(§2) The major part of the liver and the red part of each quadriceps were rinsed, and chopped into isolation medium (250 mM sucrose, 20 mM Tris-HCl and 1 mM EGTA-Tris, pH 7.4). Nuclei and cell debris were removed, by centrifugation at 800 g for 10 min. Mitochondria were then isolated from the supernatant by spinning twice at 8,000 g for 10 minutes. The mitochondrial pellet was resuspended in 0.5 ml of isolation buffer and kept on ice. Mitochondrial protein was measured by the bicinchoninic acid method (Pierce, Rockford, Ill.). The final mitochondrial suspensions were maintained on ice and were used for measurements of oxygen consumption rate and reactive oxygen species (ROS) production.
(§3) The rate of mitochondrial oxygen consumption (JO2) was measured at 30° C. in an incubation chamber with a Clark-type O2 electrode filled with 2 ml of incubation medium (125 mM KCl, 10 mM Pi-Tris, 20 mM Tris-HCl, 0.1 mM EGTA, pH 7.2). All measurements were performed using mitochondria (1.0 or 0.2 mg mitochondrial protein/ml for liver and skeletal muscle) incubated either with various substrates: glutamate/malate (5 mM/2.5 mM) and succinate (5 mM), alone or in combination, palmitoyl carnitine (55 μM) and octanoyl carnitine (100 μM). For each substrate, JO2 was recorded in the presence of the substrate alone (State 2) and following the addition of 1 mM ADP (state 3). Oligomycin (1.25 μg/mg protein) was added to the mitochondrial suspension to determine the non-phosphorylating respiratory rate (state 4). The incubation medium was constantly stirred with a built-in electromagnetic stirrer and bar flea. The efficiency of the mitochondrial oxidative phosphorylation was assessed by the state 3/state 4 ratio which measures the degree of control imposed on oxidation by phosphorylation (respiratory control ratio, RCR).

[4] = system: muscle mitochondria; assay: Muscle mitochondrial oxygen consumption (JO2) of treated Wistar rats; assay type: in vivo
Protocol: as §1, with “(0.2” for “(1.0”
JO2 was recorded in the presence of the substrate and following the addition of 1 mM ADP (state 3).
The oligomycin was added to the mitochondrial suspension to determine the non-phosphorylating respiratory rate (state 4).
as §2, §3

**Q.** With N[C@@H](Cc1cc(I)c(Oc2ccc(O)cc2)c(I)c1)C(=O)O [3,5-T2, 3,5-diiodothyronine] as the molecule, how does the “Absolute values of fat deposit, all localizations, vs placebo” value [1] read?
**A.** significantly lower

**Q.** And the “Brown adipose tissue vs placebo” value [1]?
**A.** significantly increased

**Q.** What about the “Muscle mass vs placebo” value [1] of the same molecule?
**A.** not affected

**Q.** What about the “Fat mass gain vs placebo” value ([2]; 4 weeks) of the same molecule?
**A.** less

**Q.** And the “Lean body mass increase vs placebo” value ([2]; 4 weeks)?
**A.** higher

**Q.** What about the “Core temperature vs placebo” value ([2]; 15 days) of the same molecule?
**A.** higher as compared to placebo

**Q.** What about the “Liver mitochondrial respiratory rate, non-phosphorylating (state 4, oligomycin), vs placebo” value ([3]; high dosage 25 μg/100 g BW) of the same molecule?
**A.** substantially higher in the low 3,5-T2 group only

**Q.** What about the “Liver mitochondrial respiratory rate, phosphorylating condition (state 3), vs placebo” value ([3]; high dosage 25 μg/100 g BW) of the same molecule?
**A.** very significant increased respiratory rate

**Q.** What about the “Liver mitochondrial respiratory rate, non-phosphorylating (state 4, oligomycin), vs placebo” value ([3]; low dosage 2.5 μg/100 g BW) of the same molecule?
**A.** substantially higher

**Q.** What about the “Liver mitochondrial respiratory rate, phosphorylating condition (state 3), vs placebo” value ([3]; low dosage 2.5 μg/100 g BW) of the same molecule?
**A.** very significant increased respiratory rate

**Q.** What about the “Muscle mitochondrial respiration, non-phosphorylating (state 4), vs placebo” value ([4]; high dosage 25 μg/100 g BW) of the same molecule?
**A.** failed to substantially affect

**Q.** And the “Muscle mitochondrial respiration, phosphorylating (state 3), vs placebo” value ([4]; high dosage 25 μg/100 g BW)?
**A.** failed to substantially affect

**Q.** What about the “Muscle mitochondrial respiration, non-phosphorylating (state 4), vs placebo” value ([4]; low dosage 2.5 μg/100 g BW) of the same molecule?
**A.** failed to substantially affect

**Q.** And the “Muscle mitochondrial respiration, phosphorylating (state 3), vs placebo” value ([4]; low dosage 2.5 μg/100 g BW)?
**A.** failed to substantially affect
